# Assays:
# FL^T174 PDX = assay: PDX model tumor growth and weight, FL T174; format: in vivo, human; settings: result in words
# Protocol: (§1) Four 5-week-old male NSG mice were implanted subcutaneously with 200 μl of a 1:1 mixture of Matrigel® Basement Membrane Matrix High Concentration (Corning, 354230) and minced fresh tumor fragments resected from lymphoma patients. Approximately 3–4 weeks following implantation, the first-generation mice (G1) were killed, and tumor masses were isolated. The tumor cells were tested for human CD19 (BCL) or CD3 expression (T cell lymphoma), and the remaining tumor mass was cut into 3-mm^3 sections and passaged into 4–5 NSG mice as the second generation (G2). After stable passage of the third generation (G3), the tumor mass of the fourth generation (G4) was equally cut into 3-mm^3 pieces and then passaged subcutaneously into 30–50 NSG mice (100 μl of a 1:2 mixture of Matrigel and tumor tissue) for in vivo treatment (6–8 mice per group, dependent on the experimental drug treatment). During and after treatment with the vehicle control or the indicated agent, tumor burden was evaluated by measuring the tumor volume to determine the therapeutic efficacy in the PDX models. […]
# (§2) To evaluate the survival rate, these mice were monitored for 8 months (Myc^Eμ mice). […] During the indicated treatments, tumor burden was evaluated by measuring the tumor volume to determine the therapeutic efficacy in the PDX models.
# MYC ubiquitination = MYC ubiquitination in PCON- and PCM4-treated Raji cells; format: cell-based, human; settings: lymphoma cells; result in words
# MYC protein = MYC protein level by immunoblotting in Jurkat and Raji cells; format: cell-based, human; settings: 4 μM, result in words
# Protocol: Co-IP experiments were performed as described previously. Briefly, cells were collected and lysed for 30 min on ice. Soluble lysates were incubated with the indicated antibodies at 4 °C overnight, followed by incubation with Protein A/G Plus-Agarose (Santa Cruz Biotechnology, TX, USA) at 4 °C for 2 h. Soluble lysates were incubated with the indicated Anti-Myc magnetic beads (Bimake.com, B26302), Anti-Flag Affinity Gel (Bimake.com, B23102) or Anti-HA Affinity Gel (Bimake.com, B23302) at 4 °C overnight. Immunocomplexes were separated from the beads and then boiled for 10 min. The precipitated proteins were subjected to SDS-PAGE and blotted with specific antibodies. For immunoblotting assays, proteins were extracted from cells, spleens, or lymphoma tissues using RIPA buffer (Cell Signaling Technology, MA, USA). A BCA Protein Assay Kit was used to determine protein concentrations. Protein extracts were separated by SDS-PAGE, transferred onto PVDF membranes, and subjected to immunoblot analysis. Western blot images were captured by a Tanon 5200 chemiluminescent imaging system (Tanon, Shanghai, […]). Human lymphoma and benign LN paraffin tissue microarrays were purchased from US Biomax (LM482a).
# [1] = Serum ALT, AST, UREA and CRE (liver and renal function) in treated Myc^Eμ mice; settings: UREA, CRE, result in words
# Text: The serum alanine transaminase (ALT) and aspartate transaminase (AST) levels of MycEµ mice with the indicated
# treatment were detected to evaluate liver function (n = 6 per group). Data are represented as means ± SEM. (b) Th e
# serum UREA and creatinine (CRE) levels of MycEµ mice with the indicated treatment were detected to evaluate
# renal function (n = 6 per group). Data are represented as means ± SEM.
# [2] = tested on: murine Myc^Eμ lymphoma cells in NSG mice; assay: Limiting dilution transplantation of BCL cells into NSG mice (survival of secondary recipients); format: in vivo, mouse; settings: NSG mice injected i.p. with lymphoma cells from PCM4 (2 mg/kg) group versus PCON group, 70 days; result in words
# Text: To evaluate the survival rate of secondary recipients, these mice were monitored for 70 days. For the evaluation of IHC staining and protein expression, three mice of each group were killed at the end of treatment, and the thymuses, spleens and LNs were collected for pathology detection, Co-IP, and western blot assays.
# MYC and MAX = assay: Duolink PLA of MYC and MAX colocalization in Raji cells; format: cell-based, human; settings: PCM4-treated Raji cells, result in words
# Protocol: A total of 1 × 10^6 cells were seeded overnight in a six-well plate. The next day, cells were collected, fixed in 4% paraformaldehyde solution, permeabilized with 0.5% Triton-X100, blocked with Duolink® Blocking Solution, and probed with antibodies directed against MYC (R&D, NB600-302, 1:100), TRIB3 (Novus, H00057761-M03, 1:100), UBE3B (Invitrogen, PA5-59390, 1:100), and MAX (Cell Signaling Technology, #4739, 1:100). The cells were then treated with the Duolink In Situ Red Starter Mouse/Rabbit kit (Sigma Aldrich, DUO92101-1KT) according to the manufacturer’s instructions. Images were captured with an OLYMPUS confocal microscope.
# MYC target genes = assay: qRT-PCR of MYC target genes; format: cell-based, human; settings: qRT-PCR and RNA-seq; result in words
# Protocol: Total RNA was extracted using TRIzol (Invitrogen, CA, USA) according to the manufacturer’s instructions. Reverse transcription of total cellular RNA was carried out using oligo (dT) primers and M-MLV reverse transcriptase (Transgen Biotech, Beijing, China). PCR was performed using a Mycycler thermal cycler and analyzed using LineGene9600. The PCR primer sequences were as follows: MYC forward, 5′-[…]-3′; MYC reverse, 5′-[…]-3′; GAPDH forward, 5′-[…]-3′; GAPDH reverse, 5′-[…]-3′; TFAP4 forward, 5′-[…]-3′, TFAP4 reverse, 5′-[…]-3′; PLD6 forward, 5′-[…]-3′, PLD6 reverse, 5′-[…]-3′; CCNA1 forward, 5′-[…] GCAG-3′, CCNA1 reverse, 5′-[…]-3′; CCND1 forward, 5′-CCGTCC […]-3′, CCND1 reverse, 5′-[…]-3′; CCNE2 forward, 5′-TTC […]-3′; and CCNE2 reverse, 5′-[…]-3′. The human FBXW7 siRNA sequence was 5′-[…]-3′, the human MYC siRNA sequence was 5′-[…] GCGAA-3′, and the human HUWE1 siRNA sequence was 5′-[…]-3’. TRIB3 siRNAs were produced by RiboBio (Guangzhou, China) and transfected using Lipofectamine RNA interference MAX Transfection Reagent (Life Technologies, CA, USA) according to the manufacturer’s instructions.
# TLBL^T123 PDX = assay: PDX model tumor growth and weight, T-LBL T123; format: in vivo, human; settings: result in words
# Protocol: as §1, §2
# primary mouse BCL cells = assay: Serial colony formation of primary mouse BCL cells from Myc^Eμ mice; format: cell-based; settings: result in words
# Text: Mouse and human lymphoma cells formed colonies upon serum culture (P1). Single colonies of lymphoma cells were dispersed in methylcellulose-based medium MethoCul^TM M3630 (StemCell, 03630) or MethoCult™SF H4536 (StemCell, 04536). A representative plate was then washed and cells were resuspended and replated. After an additional 14 days, colonies were counted (P2).
sequence,measurement,setting,value
"HLYVSPWGGKRREQLKHKLEQLR [PCM4, fused peptide generated by linking CM4 to a cell-penetrating peptide]","growth and weights of tumors, combination of PCM4 and DOX","FL^T174 PDX; PDX T174 (high TRIB3 and MYC expression), PCM4 5 mg/kg and DOX 2 mg/kg",further decreased the growth and weights of tumors
same,tumor growth of PDX,"FL^T174 PDX; PDX T174, NSG mice, PCM4 5 mg/kg i.v. three times a week",inhibited the tumor growth
same,MYC ubiquitination and degradation,MYC ubiquitination,rescued MYC ubiquitination and degradation
same,MYC abundance,MYC protein,reduced the MYC abundance
same,toxic effects (renal/liver function assays),[1],did not exert obvious toxic effects
same,survival rate of secondary recipients,[2],better survival rate
same,foci of MAX-MYC colocalization,MYC and MAX,reduced foci of MAX-MYC colocalization
same,transcription of MYC target genes,MYC target genes,suppressed the transcription of MYC target genes
same,"growth and weights of tumors, combination of PCM4 and DOX","TLBL^T123 PDX; PDX T123 (high TRIB3 and MYC expression), PCM4 5 mg/kg and DOX 2 mg/kg",further decreased the growth and weights of tumors
same,tumor growth of PDX,"TLBL^T123 PDX; PDX T123, NSG mice, PCM4 5 mg/kg i.v. three times a week",inhibited the tumor growth
same,intrinsic clonogenicity of primary mouse BCL cells,primary mouse BCL cells,reduced the intrinsic clonogenicity

# — paper PMC7725785, “TRIB3 promotes MYC-associated lymphoma development through suppression of UBE3B-mediated MYC degradation” (Nature Communications, 2020)
